This passage reports IC50 results from BindingDB's records for doi:10.1016/j.bmcl.2005.02.039 (National Institute of Pharmaceutical Education and Research …, 2005).

As usually defined, the IC50 is the concentration that inhibits the measured activity by half. Low values mean greater potency in that assay, high ones weaker potency in that assay.

The experiment in a line: Anti-oxidant activity in DPPH radicak scavenging assay; n=3-4.
On to `Oc1ccc(/C=C/c2cc(/C=C/c3ccc(O)cc3)[nH]n2)cc1` [4-((E)-2-{3-[(E)-2-(4-hydroxyphenyl)vinyl]-1H-pyrazol-5-yl}vinyl)phenol], for which 32.4 µM corresponded to half-maximal inhibition (IC50).

Compound `COc1cc(C=Cc2cc(C=Cc3ccc(O)cc3)n[nH]2)ccc1O` [4-((E)-2-{5-[(E)-2-(4-Hydroxy-phenyl)-vinyl]-1H-pyrazol-3-yl}-vinyl)-2-methoxy-phenol] came in with an IC50 of 15.5 µM.

As for `COc1cc(/C=C/c2cc(/C=C/c3ccc(O)cc3)on2)ccc1O` [4-((E)-2-{5-[(E)-2-(4-Hydroxy-phenyl)-vinyl]-isoxazol-3-yl}-vinyl)-2-methoxy-phenol], the midpoint of inhibition, the IC50, lay at 19 µM. The IC50 values of the last two compounds are within 1.5-fold of each other.
